Laboratory results published in paper PMC8279416, “Structural Fine-Tuning of Desmuramylpeptide NOD2 Agonists Defines Their In Vivo Adjuvant Activity” (Journal of Medicinal Chemistry, 2021).

Columns and labels:
NOD2 = target: T1, NOD2 (Homo sapiens, UniProt Q9HC29); test: HEK-Blue NOD2 cell line reporter assay (NF-κB-inducible SEAP); format: cell-based; conditions: for EC50 / NOD2 activity at 2 μM (fold increase): HEK-Blue NOD2 cells; for NOD2 activity at 2 μM (fold increase): NF-κB transcriptional (SEAP) activity relative to 0.1% DMSO
T1 construct: host or cells: HEK-Blue NOD2 cells (HEK293-derived)
T1 sequence (Q9HC29 whole entry): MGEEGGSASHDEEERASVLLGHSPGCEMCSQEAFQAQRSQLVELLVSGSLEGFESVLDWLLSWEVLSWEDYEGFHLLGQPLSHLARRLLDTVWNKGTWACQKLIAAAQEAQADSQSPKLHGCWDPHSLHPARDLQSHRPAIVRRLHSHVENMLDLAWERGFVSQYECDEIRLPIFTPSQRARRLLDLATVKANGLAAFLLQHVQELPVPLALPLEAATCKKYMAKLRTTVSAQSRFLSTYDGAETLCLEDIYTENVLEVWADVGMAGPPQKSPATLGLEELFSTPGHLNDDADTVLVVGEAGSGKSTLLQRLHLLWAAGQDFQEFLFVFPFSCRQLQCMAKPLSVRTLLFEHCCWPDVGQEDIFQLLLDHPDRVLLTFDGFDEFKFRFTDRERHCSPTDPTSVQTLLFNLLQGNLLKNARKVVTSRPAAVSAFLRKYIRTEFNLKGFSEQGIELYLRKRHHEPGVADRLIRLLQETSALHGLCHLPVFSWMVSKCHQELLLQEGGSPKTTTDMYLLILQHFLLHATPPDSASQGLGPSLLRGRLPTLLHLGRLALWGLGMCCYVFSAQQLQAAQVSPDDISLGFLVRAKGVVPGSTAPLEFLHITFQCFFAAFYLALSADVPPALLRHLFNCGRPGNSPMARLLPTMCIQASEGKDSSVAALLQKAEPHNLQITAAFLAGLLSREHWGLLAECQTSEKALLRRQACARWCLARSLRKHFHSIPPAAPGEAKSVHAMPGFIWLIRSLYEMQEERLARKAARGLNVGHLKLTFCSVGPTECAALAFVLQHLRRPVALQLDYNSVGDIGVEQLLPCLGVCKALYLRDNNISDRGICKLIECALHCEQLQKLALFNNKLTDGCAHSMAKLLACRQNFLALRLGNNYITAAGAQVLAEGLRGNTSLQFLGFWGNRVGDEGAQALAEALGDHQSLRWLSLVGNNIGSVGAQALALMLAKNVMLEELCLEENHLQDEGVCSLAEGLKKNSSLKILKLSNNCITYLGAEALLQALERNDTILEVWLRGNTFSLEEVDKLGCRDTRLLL

[1] = test system: K562 chronic myelogenous leukemia cells; test: PBMC cytotoxicity assay against K562 cells (flow cytometry); format: cell-based
Protocol: (§1) In the present study, we examined these desmuramylpeptides in terms of potentiation of the cytotoxic activity of the PBMCs against cancer cells. To this end, we used a previously described flow-cytometry-based cytotoxicity assay where PBMCs are co-incubated with fluorescently labeled cancer cells.[89] As indicated above, the NOD2-mediated NK cell activity originates from both the direct effects of NOD2 agonists on NK cells and the indirect activation through cytokine release by other NOD2-responsive cells, including monocytes. Thus, we used the whole PBMC population as the effector cells, rather than isolated NK cells, to provide conditions that would be closer to the in vivo environment, wherein the immune responses can be reinforced by interactions between the distinct immune cell subpopulations. Two malignant cell lines were used as the target cells in a 40:1 effector to target cell ratio: MEC1 B-chronic lymphocytic leukemia cells, and K562 chronic myelogenous leukemia cells. The K562 cells are considered a “classic” NK cell target, as they lack the expression of major histocompatibility complex (MHC) class I that is required for NK cell inhibition.[90]
(§2) The PBMC cytotoxicity assays using K562 and MEC1 cells were performed as described previously, with some modifications.[89] PBMCs were seeded (4 × 10^5 cells/well) in 96-well plates and treated with compounds (0.1–10 μM) or vehicle (0.1% DMSO) for 18 h. The K562 or MEC1 cells were stained with CFSE (Invitrogen, Carlsbad, CA, U.S.A.), washed twice with complete medium, and added (1 × 10^4 cells/well) to pretreated PBMCs for a final effector cell to target tumor cell ratio of 40:1. After a 4 h co-incubation (37 °C, 5% CO2), cells were stained with Sytox blue dead cell stain (Invitrogen) and analyzed using an Attune NxT flow cytometer (Thermo Fisher Scientific, Waltham, MA, U.S.A.) and the FlowJo software (Tree Star, Inc., Ashland, OR, U.S.A.). Cells that were positive for both CFSE and Sytox blue were defined as dead K562 and MEC1 cells. PBMCs alone and the CFSE-labeled cancer cells alone were also treated with the compounds at the same concentrations and stained with Sytox blue to determine any direct cytotoxicity of the compounds toward the PBMCs and cancer cells. The experiments were run in duplicate and repeated as three independent biological replicates. Statistical significance was determined by one-way ANOVA followed with Dunnett’s multiple comparisons test.

[2] = test system: MEC1 B-chronic lymphocytic leukemia cells; test: PBMC cytotoxicity assay against MEC1 cells (flow cytometry); format: cell-based
Protocol: as §1
as §2, with “Cells that were positive for both CFSE and Sytox blue were defined as dead K562 and MEC1 cells. PBMCs alone and the CFSE-labeled cancer cells alone were also treated with the compounds at the same concentrations and stained with Sytox blue to determine any direct cytotoxicity of the compounds toward the PBMCs and cancer cells. The experiments were run in duplicate and repeated as three independent biological replicates.” left out

[3] = test system: CD4+ T cells (OT II) cocultured with BMDCs; test: BMDC antigen presentation assay with ovalbumin-specific CD4+ T cells; format: cell-based, mouse; conditions: ovalbumin 50 μg/mL, 72 h coculture
Protocol: To evaluate the adjuvant potential of the two most-promising desmuramylpeptides, 68 and 75, in terms of their effects on DC-mediated activation of CD4^+ and CD8^+ T cells, we used an in vitro antigen-presentation assay with C57BL/6 mouse bone-marrow-derived DCs (BMDCs). Following stimulation with 68 and 75 (1 or 10 μM) in the presence of ovalbumin soluble protein (50 μg/mL), BMDCs were cocultured with carboxyfluorescein succinimidyl ester (CFSE)-labeled naive ovalbumin-specific CD4^+ or CD8^+ T cells, which were isolated from splenocytes of OT II and OT I transgenic mice, respectively. After 3 days of coculture, CD25 (α subunit of IL-2 receptor)[108] expression was determined, along with the CFSE dilution, as markers of T-cell activation and proliferation, respectively. Furthermore, we also examined how this desmuramylpeptide-induced priming of T cells affected the secreted cytokine profiles in BMDC/T-cell cocultures.
CD4^+ and CD8^+ T cells were purified from splenocytes of OT II and OT I transgenic mice using CD4^+ and CD8^+ T cell isolation kits (Miltenyi Biotec, Germany), according to manufacturer instructions. Purified T cells were stained with CFSE (Invitrogen, Carlsbad, CA, U.S.A.) and washed. Then, 5 × 10^4 T cells were mixed with 1 × 10^4 BMDCs per well (pretreated with desmuramylpeptides [1 or 10 μM] and 50 μg/mL ovalbumin [InvivoGen, San Diego, CA, U.S.A.] for 18 h, and then washed). […] The cells were stained with Fixable viability dye eFluor 780 (eBioscience, Thermo Fisher Scientific, MA, U.S.A.), anti-Thy1.2-PE-Cy7 antibodies (Biolegend, San Diego, CA, U.S.A.), anti-CD8-eFluor450 antibodies (eBioscience), anti-CD4-eFluor450 antibodies (eBioscience), and anti-CD25-APC antibodies (Biolegend) and analyzed using a Beckman Coulter Cytoflex S flow cytometer (CA, U.S.A.) and FlowJo software (Tree Star, Inc., Ashland, OR, U.S.A.). Live Thy1.2^+/CD4^+ and Thy1.2^+/CD8^+ were evaluated for CFSE dilution and CD25 expression. […] Statistical significance was determined by one-way ANOVA followed by Dunnett’s multiple comparisons test.

[4] = 18 h, 7 or 8 concentrations 1 nM to 20 μM, mean ± SEM
[5] = 10 μM, 18 h pretreatment, 4 h co-incubation, 40:1
[6] = 10 μM, CD25 expression and CFSE dilution

Row | SMILES | EC50 (NOD2) | NOD2 activity at 2 μM (fold increase) (NOD2; 18 h, mean ± SEM) | EC50 (NOD2; [4]) | Diminished activity by a factor, relative to 74 (NOD2; ratio of EC50 versus compound 74) | Boost to the cytotoxicity of PBMCs against K562 cells ([1]; 100 nM) | Boost to the cytotoxicity of PBMCs against K562 cells ([1]; 1 μM) | Boost to the cytotoxicity of PBMCs against K562 cells [1, 5] | Boost to the cytotoxicity of PBMCs against MEC1 cells ([2]; 100 nM) | Boost to the cytotoxicity of PBMCs against MEC1 cells [2, 5] | BMDC-mediated CD4+ T-cell activation and proliferation [3, 6] | BMDC-mediated CD4+ T-cell activation and proliferation ([3]; 1 μM) | Improvement in potency over 32 (NOD2; ratio of EC50 versus compound 32)
1 | CCCCCCCCCCCCCCCCCC(=O)Oc1ccc(/C=C/C(=O)NCC(=O)N[C@H](C(=O)N[C@H](CCC(=O)OCC)C(=O)OCC)C(C)C)cc1OC [Compound 75, Diethyl ((E)-3-(3-Methoxy-4-(stearoyloxy)phenyl)acryloyl)glycyl-L-valyl-D-glutamate] | 2830 nM | 2.37 ± 0.01 fold increase | 2830 ± 206 nM | 90 | no effects were seen against either cell line | still significant | significant boost | no effects were seen against either cell line | significant boost | significantly enhanced | – | –
2 | COc1cc(/C=C/C(=O)NCC(=O)N[C@H](C(=O)N[C@H](CCC(=O)OC2CCCC2)C(=O)OC2CCCC2)C(C)C)ccc1O [Compound 68, Dicyclopentyl ((E)-3-(4-Hydroxy-3-methoxyphenyl)acryloyl)glycyl-L-valyl-D-glutamate] | – | – | – | – | – | – | – | – | – | significantly enhanced | also showed this effect | –
3 | CCCCCCCCCCCCCCCCCC(=O)Oc1ccc(/C=C/C(=O)NCC(=O)N[C@H](C(=O)N[C@H](CCC(=O)OCC)C(=O)OCC)[C@@H](C)O)cc1OC [Compound 81, Diethyl ((E)-3-(3-Methoxy-4-(stearoyloxy)phenyl)acryloyl)glycyl-L-threonyl-D-glutamate] | 1450 nM | 1.96 ± 0.01 fold increase | 1450 ± 150 nM | – | – | – | devoid of activity | – | devoid of activity | – | – | 10 fold
